# Measurements: patent US10833345B2, “Materials for high-performance aqueous organic redox flow batteries” (UNIVERSITY OF SOUTHERN CALIFORNIA, priority 2016, dated 2020)
# Tests used:
# [1] = Crossover rate through NAFION 324 versus NAFION 117 membrane; format: physicochemical; conditions: NAFION 324 (25-micron EW 1500 layer, 150-micron EW 1100 layer) vs NAFION 117 (EW 1100)
# Text: In a variation, the reduced rate of crossover of the redox active molecules is achieved by using a membrane with a higher equivalent weight of NAFION®. The membrane NAFION® 324, has a 25-micron layer of equivalent weight 1500 and a 150-micron layer of equivalent weight 1100. The crossover rate of DMDHMS through such a membrane is just 0.65 of that through a homogenous NAFION® 117 membrane that has an equivalent weight of 1100 throughout the membrane.
# [2] = Rate of crossover through NAFION 117 membrane; format: physicochemical; conditions: for crossover rate rank order: over 192 hours; for concentration appearing by crossover through the membrane: 192 hours
# Text: In another embodiment, compounds for the first redox couple 22 and/or the second redox couple 32 of FIG. 1 that reduce crossover between the anode and cathode compartments are provided. The crossover of the redox active species across the cell is largely determined by the molecular size. Examples of the redox compounds of this embodiment include, but are not limited to, para-toluene sulfonic acid (p-TSA), 2,6-dimethyl-1,4-dihydroxy benzene 3-mono-sulfonic acid, 1,2-dihydroxybenzene-3,5-disulfonic acid (BQDS), and anthraquinone-2,7-disulfonic acid (AQDS). The rate of crossover of the various types of positive electrode materials through a NAFION® 117 membrane was measured. The concentration of p-TSA appearing by crossover through the membrane is found to be much higher than that of the DMDHMS and BQDS (FIG. 6). […] The crossover rate measured over a period of 192 hours provided a rank order of p-TSA>DMDHMS≈BQDS>>AQDS. This rank order correlates with molecular size. The molecules of smaller size will diffuse more readily through the proton conducting membrane. Therefore, it is claimed that by modifying the size of the molecule we can suppress or reduce crossover. The redox active molecules that are prone to crossover may be modified in the size by either applying substituent groups. Such substituent groups can be simple methyl groups, sulfonic acid groups, alkyl groups, branched alkyls such as tertiary butyl, aromatic groups such as phenyl or benzyl groups, multi-ring aromatic groups such as naphthyl, anthracenyl (with or without substituents) amino, quaternary amino, keto, carboxyl and quinone groups. Examples of such redox active molecules with substituents that are enhanced in molecular size include the following compounds having formula II, III, and IV: […]
# [3] = Cyclic voltammetry of redox couples in alkaline electrolyte; format: physicochemical; conditions: for reduction potential: vs. mercury/mercuric oxide reference electrode (MMO)
# Text: The redox couples must be soluble in the alkaline electrolyte and must can undergo facile electron transfer.
# The reduction potential for this couple in alkaline electrolyte is about −0.35 V vs. MMO.
# While these compounds are not suitable for operation in acidic media because of the attendant polymerization reactions, these compounds perform well in alkaline media. […] The reduction potentials are quite negative relative to the last example of DHA. Consequently, this may be combined with AQDS to form a redox flow battery.
# The electrochemical reversibility of such a Michael addition-resistant compound is shown in FIG. 29 for benzenedi-hydroxy tetracarboxylic acid also called hydroquinonetetracarboxylic acid (HQTC). […] The reduction potential of HQTC is such that it can be combined with DHA to create a redox flow battery with a cell voltage of 0.5 V (FIG. 30). Further HQTC can also be combined with the molecules from the quinoxaline family, and the flavin family to yield redox flow batteries with the cell voltage in the range of 0.5 to 1 V. 1,2,4-trihydroxyanthraquinone (Purpurin) is claimed to be a negative electrode material suitable for operation in alkaline media.
# [4] = Rotating disk electrode study of hydroxyl-substituted anthraquinones in NaOH; format: physicochemical; conditions: Hydroxy anthraquinones in NaOH
# Text: Bifunctional redox molecules can also be a molecule with different redox properties in various ranges of potentials. This type of molecule is typified by the substituted hydroxy anthraquinones. In this regard, redox properties of several substituted anthraquinones have been studies. Electrochemistry experiments on the rotating disk electrode confirm the existence of two diffusion limited regions separated by a significant potential difference of 0.5 V to 1.0 V for certain types of substitutions (FIG. 6). For these molecules, two different redox processes occur at different potentials. Those molecules which have hydroxyl substituents in positions such as 1,2- and 1, 4- are particularly suitable for this purpose.
# In Table 2 below we summarize the properties of these types of substituted anthraquinones that can be used on both as positive and negative electrode materials and others that have similar moieties but are not suitable for this type of deployment. The use of these molecules is suitable for use both acidic and alkaline media as shown by the rotating electrode studies.
# [5] = Charge and discharge cycling of organic redox flow cells; conditions: cell with anthraquinone-2,7-disulfonic acid, 0.5 M each
# Text: In another embodiment, the effects of crossover can be mitigated by using a mixture of positive and negative electrolyte materials in equimolar quantities at both the electrodes. When such a mixture is charged only the positive electrolyte component will undergo oxidation reaction at the positive electrode and the negative electrolyte material will undergo reduction reactions at the negative electrode. Since the concentration of the redox active species is identical even if crossover occurs, the positive electrolyte material occurred to the negative electrolyte side this change in concentration will be balanced by back diffusion. Thus, there might be self-discharge but no permanent capacity loss or compositional change of the electrolyte. Any two redox couples that qualify as positive and negative electrolyte materials can be mixed in equimolar proportions and used as the electrolyte. We have shown the feasibility of rechargeability of this type of mixed materials using DMDHMS and AQDS (FIG. 8). Nearly 100% of the charge input was returned during discharge.
# Based on the electrode potentials, the DHA can serve as the negative electrolyte and the AQDS can serve as the positive electrolyte. […] The cell was charged and discharged at 8 mA/cm^2. The value of cell voltage was consistent with that expected from the reduction potential of the redox couples. […]
# [6] = Cyclic voltammetry and redox cell states of AMBSA; format: physicochemical; conditions: FIG. 4
# [7] = alkaline electrolyte, 1 M potassium hydroxide
compound,measurement,setting,value
"Cc1cc(O)c(S(=O)(=O)O)c(C)c1O [DMDHMS, 2,6-dimethyl-1,4-dihydroxybenzene-3-sulfonic acid]",crossover rate through NAFION 324 relative to NAFION 117,[1],0.65
same,crossover rate rank order,[2],p-TSA>DMDHMS≈BQDS>>AQDS
"O=C1c2ccc(S(=O)(=O)O)cc2C(=O)c2cc(S(=O)(=O)O)ccc21 [AQDS, anthraquinone-2,7-disulfonic acid]",electrochemical behavior (cyclic voltammogram),[3]; 1 M sodium hydroxide,reversible electrochemical behavior
same,reduction potential,[3]; 1 M sodium hydroxide,about −0.35 V
same,concentration appearing by crossover through the membrane,[2],not detected
same,crossover rate rank order,[2],p-TSA>DMDHMS≈BQDS>>AQDS
"O=C(O)c1c(O)c(C(=O)O)c(C(=O)O)c(O)c1C(=O)O [HQTC, hydroquinonetetracarboxylic acid]",electrochemical behavior (cyclic voltammogram),[3]; [7],reversible electrochemical behavior with two different sets of peaks
"O=C1c2ccccc2C(=O)c2c1cc(S(=O)(=O)O)c(O)c2O [1,2-dihydroxy, 3-sulfonic acid anthraquinone]",Di-Couple Potential (yes/no),[4],Yes
same,Di-Couple Potential difference,[4],930 mV
same,E1/2(Volts) vs MMO,[4],−0.75 V
"O=C1c2ccc(O)cc2C(=O)c2ccc(O)cc21 [2,6-dihydroxy anthraquinone]",Di-Couple Potential (yes/no),[4],No
same,E1/2(Volts) vs MMO,[4],−0.8 V
"Cc1cc(O)c(C)c(S(=O)(=O)O)c1O [2,5-dimethyl-1,4-dihydroxybenzene-3-sulfonic acid]","resistance to Michael reaction, cycles of charge and discharge",[5],at least 100 cycles
"Cc1ccc(S(=O)(=O)O)cc1 [p-TSA, para-toluene sulfonic acid, reference compound]",concentration appearing by crossover through the membrane,[2],much higher
same,crossover rate rank order,[2],p-TSA>DMDHMS≈BQDS>>AQDS
"O=C1c2ccccc2C(=O)c2c1ccc(O)c2O [difference1,2-dihydroxy anthraquinone, 1,2-dihydroxy anthraquinone]",Di-Couple Potential (yes/no),[4],Yes
same,Di-Couple Potential difference,[4],1 V
same,E1/2(Volts) vs MMO,[4],−0.73 V
c1ccc2nccnc2c1 [quinoxaline],electrochemical behavior (cyclic voltammogram),[3]; [7],reversible electrochemical behavior
"O=S(=O)(O)c1cc(O)c(O)c(S(=O)(=O)O)c1 [BQDS, 1,2-dihydroxybenzene-3,5-disulfonic acid]",crossover rate rank order,[2],p-TSA>DMDHMS≈BQDS>>AQDS
"O=C1c2cccc(O)c2C(=O)c2cccc(O)c21 [1,5-dihydroxy anthraquinone]",Di-Couple Potential (yes/no),[4],No
same,E1/2(Volts) vs MMO,[4],−0.65 V
"O=C1c2ccccc2C(=O)c2c(O)c(O)cc(O)c21 [1,2,4-trihydroxy anthraquinone]",Di-Couple Potential (yes/no),[4],Yes
same,Di-Couple Potential difference,[4],840 mV
same,E1/2(Volts) vs MMO,[4],−0.84 V
"O=C1c2cccc(O)c2C(=O)c2c(O)cccc21 [DHA, 1,8-dihydroxyanthraquinone]",electrochemical behavior (cyclic voltammogram),[3]; 1 M sodium hydroxide,reversible electrochemical reaction
same,reduction potential,[3]; 1 M sodium hydroxide,about −0.7 V
"O=C1c2ccccc2C(=O)c2c(O)ccc(O)c21 [1,4-dihydroxy anthraquinone]",Di-Couple Potential (yes/no),[4],Yes
same,Di-Couple Potential difference,[4],880 mV
same,E1/2(Volts) vs MMO,[4],−0.63 V
"O=C1c2ccccc2C(=O)c2cc(Cc3cc(O)cc(S(=O)(=O)O)c3O)ccc21 [AMBSA, 2-anthraquinonemethyl (p-benzoquinol sulfonic acid)]",cyclic voltammogram peaks,[6],two distinct peaks
